ChEMBL document CHEMBL1201862, “PubChem BioAssay data set” (2004)
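Step 1: Grow cells in 96-well plates. Step 2: Expose to compound for 48 hours at 5 concentrations. Step 3: Interpolate endpoints linearly; if unreached, use highest concentration. At the GI50, growth is halved.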 Active and inactive are the calls of the source. Rule as the data show it: active = GI50 up to about 1.1 µM and inactive = higher. Where a SMILES comes first, the peptide text is derived from it. The star is where a group is joined. Boc = CC(C)(C)OC(=O)*

Experiments:
Experiment in all cases: DTP human tumour cell line panel, 48 h
A498 = test system: A498
A549 = test system: A549
CAKI-1 = test system: CAKI-1
COLO 205 = test system: COLO 205
KM12 = test system: KM12
MCF7 = test system: MCF7
MDA-MB-435 = test system: MDA-MB-435
NCI/ADR-RES = test system: NCI/ADR-RES
OVCAR-4 = test system: OVCAR-4
PC-3 = test system: PC-3
SF-295 = test system: SF-295
SK-MEL-5 = test system: SK-MEL-5
SW-620 = test system: SW-620
TK-10 = test system: TK-10
UACC-62 = test system: UACC-62
HCC 2998 = test system: HCC 2998
Hs-578T = test system: Hs-578T
SR = test system: SR

Measured: GI50

COC(=O)C1C2C=CC(C2)N1S(=O)(=O)c1ccccc1 (stereo unspecified)
inactive: A498 > 100 µM | A549 > 100 µM | CAKI-1 > 100 µM | COLO 205 > 100 µM | KM12 > 100 µM | MCF7 > 100 µM | MDA-MB-435 > 100 µM | NCI/ADR-RES > 100 µM | OVCAR-4 > 100 µM | PC-3 > 100 µM | SF-295 > 100 µM | SK-MEL-5 > 100 µM | SW-620 > 100 µM | TK-10 > 100 µM | UACC-62 > 100 µM

COc1ccc(/C=C2/S/C(=N\c3ccccc3)N(NC(=O)Cc3ccccc3)C2=O)c(OC)c1
inactive: A498 > 100 µM | A549 > 100 µM | COLO 205 > 100 µM | HCC 2998 82.6 µM | Hs-578T > 100 µM | KM12 > 100 µM | MCF7 > 100 µM | MDA-MB-435 > 100 µM | NCI/ADR-RES > 100 µM | OVCAR-4 > 100 µM | SF-295 > 100 µM | SK-MEL-5 69.5 µM | SW-620 > 100 µM | TK-10 > 100 µM | UACC-62 > 100 µM

CC(=O)C=C1Nc2ccccc2N1
inactive: A549 > 100 µM | CAKI-1 > 100 µM | COLO 205 > 100 µM | HCC 2998 > 100 µM | KM12 > 100 µM | OVCAR-4 > 100 µM | SF-295 > 100 µM | SK-MEL-5 > 100 µM | SR > 100 µM | SW-620 > 100 µM | UACC-62 > 100 µM

C=C1C(=O)O[C@@H]2C(=O)[C@@H](C)CCC/C(C)=C/CC[C@@]3(C)O[C@@H]3C[C@@H]12
inactive: A498 > 100 µM | A549 > 100 µM | CAKI-1 19.9 µM | COLO 205 24 µM | HCC 2998 > 100 µM | KM12 29.8 µM | MCF7 36.3 µM | MDA-MB-435 51.3 µM | NCI/ADR-RES 95.3 µM | OVCAR-4 79.4 µM | PC-3 47 µM | SF-295 > 100 µM | SK-MEL-5 29.9 µM | SW-620 20.8 µM | TK-10 27.7 µM | UACC-62 41.7 µM

CNC(=O)CNC(=O)C(NC(=O)CNC(=O)C1CCCN1C(=O)C(C)NC(=O)C(NC(=O)OC(C)(C)C)C(C)C)C(C)C (stereo unspecified) (Boc-VAPGVG-NHMe; configuration not given here)
inactive: A498 > 100 µM | CAKI-1 > 100 µM | COLO 205 > 100 µM | HCC 2998 > 100 µM | MCF7 > 100 µM | MDA-MB-435 > 100 µM | NCI/ADR-RES > 100 µM | OVCAR-4 > 100 µM | PC-3 > 100 µM | SF-295 > 100 µM | SR > 100 µM | SW-620 > 100 µM | TK-10 > 100 µM | UACC-62 > 100 µM
